Measurements taken from the NIST ThermoML archive (doi:10.1021/je3003578).

Assay: xn = mol fraction of the nth substance listed
Conditions: 101 kPa, Liquid

CCOCCCN [3-ethoxy-1-propanamine] + O
mass density [kg/m3]
Conditions	283.15 K	288.15 K	293.15 K	298.15 K	303.15 K
x1 = 0.000108	999.685	999.073	998.176	997.018	995.609
x1 = 0.000319	999.612	998.997	998.098	996.937	995.522
x1 = 0.000625	999.489	–	997.974	996.811	995.392
x1 = 0.000707	999.462	–	–	–	–
x1 = 0.000942	999.378	998.755	997.845	996.67	995.256
x1 = 0.001046	999.335	–	–	–	–
x1 = 0.001284	999.244	998.623	997.706	996.533	995.106
x1 = 0.001947	999.006	998.367	997.459	996.269	994.822
x1 = 0.002912	998.665	998.003	997.058	995.851	994.409
x1 = 0.00392	998.32	997.639	996.673	995.45	993.991
x1 = 0.005098	997.943	997.245	996.25	995.024	993.55
x1 = 0.007456	997.213	996.459	–	–	–
x1 = 0.00981	996.579	995.782	994.681	993.348	991.796
x1 = 0.0148	995.454	994.495	993.269	991.824	990.144
x1 = 0.01956	994.585	993.456	992.092	990.53	988.708
x1 = 0.02832	993.306	991.899	990.264	988.433	986.387
x1 = 0.03914	992.137	990.361	988.357	986.207	983.868
x1 = 0.05082	991.126	988.889	986.504	983.995	981.31
x1 = 0.06674	989.564	986.858	983.968	980.975	977.903
x1 = 0.09536	985.793	982.292	978.874	975.145	971.645
x1 = 0.1209	981.126	977.267	973.326	969.369	965.331
x1 = 0.1452	976.001	971.617	967.737	963.561	959.341
x1 = 0.1844	967.807	962.845	958.517	954.192	949.751
x1 = 0.2121	960.275	955.87	951.456	947.02	942.563
x1 = 0.2438	954.343	948.987	944.543	940.074	935.55
x1 = 0.2923	944.589	939.953	935.456	930.954	926.38
x1 = 0.361	932.627	926.801	922.252	917.676	913.059
x1 = 0.4369	921.019	916.153	911.545	906.929	902.254
x1 = 0.4937	911.932	907.295	902.62	897.985	893.262
x1 = 0.5513	904.655	900.039	895.311	890.64	885.906
x1 = 0.6214	896.914	892.186	887.472	882.775	877.992
x1 = 0.6775	891.266	886.402	881.634	876.891	872.12
x1 = 0.6943	889.59	884.998	880.062	875.446	870.586
x1 = 0.7458	884.839	880.089	875.436	870.539	865.744
x1 = 0.7733	882.976	–	873.142	868.397	863.589
x1 = 0.7947	880.664	875.868	871.067	866.312	861.557
x1 = 0.8276	878.228	873.43	868.648	863.952	859.105
x1 = 0.8488	876.201	871.511	–	862.009	–
x1 = 0.8744	874.608	–	864.922	860.155	855.327
x1 = 0.8993	872.317	867.858	862.73	858.054	853.46
x1 = 0.9189	871.084	866.306	861.498	856.71	851.896
x1 = 0.9349	–	864.955	–	–	–
x1 = 0.9411	869.403	–	859.742	855.013	850.2
x1 = 0.9436	–	864.338	–	–	–
x1 = 0.9486	868.869	–	859.29	854.542	849.691
x1 = 0.9601	868.041	863.267	–	–	–
x1 = 0.9613	–	–	858.247	853.53	848.739
x1 = 0.9746	–	–	857.315	852.649	847.719
x1 = 0.9755	–	862.192	–	–	–
x1 = 0.985	866.322	861.525	–	–	–
x1 = 0.9871	–	–	856.398	851.83	846.839
x1 = 1	865.36	860.63	855.715	851.018	846.075
